From publication PMC12291464, “Modifying Antifungal Peptides as Safe Food Preservatives” (Journal of Agricultural and Food Chemistry, 2025)
Values after ≈ are worked out from the molar mass of the structure shown. Where two headings read alike, the source gives them in different places. Residues, ends and D or L forms follow the SMILES beside them.

Assays:
[1] = test system: A. Niger; settings: 24 h
Procedure: (§1) A1163 was grown on potato dextrose agar (PDA) medium at 37 °C for 5 days, and then the conidia were scraped and suspended in PBS with 0.025% (v/v) Tween 20, counted using a hemocytometer, and kept at 4 °C. isolated from peanuts and Pe21 (both kindly provided by Dr. Edward Sionov, ARO, Israel) were grown on PDA medium at 25 °C for 5 days, and then the conidia were scraped and suspended in PBS with 0.025% Tween 20 and kept at 4 °C. RP and methicillin-resistant (MRSA) were grown on LB agar plates, and individual colonies were picked and grown in Mueller–Hinton (MH) broth overnight at 37 °C. was grown on PDA medium at 30 °C, and individual colonies were picked and grown in yeast extract peptone dextrose (YPD) media overnight at 30 °C. All fungal and bacteria strains were maintained at −80 °C in 50% (v/v) glycerol stock.
(§2) For filamentous fungi strains, serial dilutions of 100 μL ranged from 100 to 0.78 μM for each peptide in a 96 well plate using RPMI1640 with 165 μM MOPS. A total of 80 μL of inoculum was suspended with a conidia load of 5 × 10^3 CFU/mL (final density of 2 × 10^3 CFU/mL), and 20 μL of resazurin was diluted in RPMI1640 solution of 0.02% [final concentration of 0.0002% (w/v)]. In the control, 100 μL of treatment was replaced by the same volume with medium, while the negative control was 180 μL of the medium and 20 μL of resazurin solution. Plates were incubated at 37 °C for and 25 °C for and for 24 h. The results were quantified by measuring absorbance at 570 nm with a microplate reader (Tecan). The mean absorbance values were used in subsequent calculations. The growth of resazurin reduction and growth inhibition was calculated using the following normalization: % growth=100−% reduction=abs of test agent−abs of untreated control/abs of reduced resazurin−abs of untreated control The MIC was defined as the lowest concentration of the peptide that inhibited fungal growth by 90%, allowing for only 10% of the normal growth. For bacterial and yeast strains studies, serial dilutions of 100 μL ranged from 100 to 0.78 μM for each peptide in a 96 well plate using MH media for bacteria and YPD for yeast. A total of 100 μL of the microbe in suitable media (5 × 10^5 CFU/mL) was inoculated in each well. In the untreated well (e.g., control), 100 μL of treatment was replaced by the same volume with medium, while in the negative control, media were only without microbes and peptides. After 24 h of incubation at 37 °C for bacteria and 30 °C for yeast, plates were read at 595 nm and MIC was defined as the lowest concentration of peptide that reduced the growth of the microbe to 10% growth.

[2] = test system: A. fumigatus; settings: 24 h
Procedure: as §1, §2

[3] = test system: E. coli
Procedure: as §1, §2

[4] = test system: MRSA
Procedure: as §1, §2

[5] = test system: P. expansum; settings: 24 h
Procedure: as §1, §2

[6] = RPMI1640 with MOPS, resazurin, absorbance 570 nm, MIC = lowest concentration inhibiting growth by 90%, average ± SE, 3 biological repeats in triplicates
[7] = MH media, 5 × 10^5 CFU/mL, 24 h at 37 °C, read at 595 nm, MIC = growth reduced to 10%, average ± SE, 3 biological repeats in triplicates

SMILES | MIC Values, A. Niger [1, 6] [µM] | MIC Values, A. fumigatus [2, 6] [µM] | MIC Values, E. coli [3, 7] [µM] | MIC Values, MRSA [4, 7] [µM] | MIC Values, P. expansum [5, 6] [µM] | MIC Values, E. coli [3] [µM] | MIC Values, MRSA [4] [µM] | MIC Values, A. Niger [1] [µM] | MIC Values, A. fumigatus [2] [µM] | MIC Values, E. coli ([3]; 24 h) [µM] | MIC Values, MRSA ([4]; 24 h) [µM] | MIC Values, P. expansum [5] [µM]
CC[C@H](C)[C@H](NC(=O)[C@H](CCCCN)NC(=O)[C@H](CCCCN)NC(=O)[C@H](Cc1ccccc1)NC(=O)[C@H](CC(C)C)NC(=O)[C@H](CCCCN)NC(=O)[C@@H](N)Cc1ccccc1)C(=O)N[C@@H](CC(C)C)C(=O)N[C@@H](CCCCN)C(=O)N[C@@H](Cc1ccc(O)cc1)C(=O)N[C@@H](CC(C)C)C(N)=O [BP100 F1K] | 42 ± 8 (≈ 60.5 µg/mL) | 10 ± 2 (≈ 14.4 µg/mL) | 3 ± 1 (≈ 4.32 µg/mL) | 3 ± 1 (≈ 4.32 µg/mL) | 6 ± 0 (≈ 8.64 µg/mL) |  |  |  |  |  |  | 
CC[C@H](C)[C@H](N)C(=O)N[C@@H](CCCCN)C(=O)N[C@@H](CC(C)C)C(=O)N[C@@H](Cc1ccccc1)C(=O)N[C@@H](CCCCN)C(=O)N[C@@H](CCCCN)C(=O)N[C@H](C(=O)N[C@@H](CC(C)C)C(=O)N[C@@H](CCCCN)C(=O)N[C@@H](Cc1ccc(O)cc1)C(=O)N[C@@H](CC(C)C)C(N)=O)[C@@H](C)CC [BP100 I1K] | 33 ± 8 (≈ 46.4 µg/mL) | 13 ± 0 (≈ 18.3 µg/mL) | 3 ± 1 (≈ 4.22 µg/mL) | 3 ± 0 (≈ 4.22 µg/mL) | 8 ± 2 (≈ 11.2 µg/mL) |  |  |  |  |  |  | 
CC[C@H](C)[C@H](NC(=O)[C@H](CCCCN)NC(=O)[C@H](CCCCN)NC(=O)[C@H](Cc1ccccc1)NC(=O)[C@H](CC(C)C)NC(=O)[C@H](CCCCN)NC(=O)[C@@H](N)CC(C)C)C(=O)N[C@@H](CC(C)C)C(=O)N[C@@H](CCCCN)C(=O)N[C@@H](Cc1ccc(O)cc1)C(=O)N[C@@H](CC(C)C)C(N)=O [BP100 L1K] | 33 ± 8 (≈ 46.4 µg/mL) | 13 ± 0 (≈ 18.3 µg/mL) | 3 ± 1 (≈ 4.22 µg/mL) | 3 ± 0 (≈ 4.22 µg/mL) | 8 ± 2 (≈ 11.2 µg/mL) |  |  |  |  |  |  | 
CC[C@H](C)[C@H](NC(=O)[C@H](CCCCN)NC(=O)[C@H](CCCCN)NC(=O)[C@H](Cc1ccccc1)NC(=O)[C@H](CC(C)C)NC(=O)[C@H](CCCCN)NC(=O)[C@@H](N)CCCCN)C(=O)N[C@@H](CC(C)C)C(=O)N[C@@H](CCCCN)C(=O)N[C@@H](Cc1ccc(O)cc1)C(=O)N[C@@H](CC(C)C)C(N)=O [BP100, reference compound] | 44 ± 8 (≈ 62.5 µg/mL) | 6 ± 0 (≈ 8.53 µg/mL) |  |  | 13 ± 6 (≈ 18.5 µg/mL) | 3 ± 2 (≈ 4.26 µg/mL) | 17 ± 4 (≈ 24.2 µg/mL) |  |  |  |  | 
C[C@H](N)C(=O)N[C@@H](CCCCN)C(=O)N[C@@H](CCCNC(=N)N)C(=O)N[C@@H](Cc1c[nH]cn1)C(=O)N[C@@H](Cc1c[nH]cn1)C(=O)NCC(=O)N[C@@H](Cc1ccc(O)cc1)C(=O)N[C@@H](CCCCN)C(=O)N[C@@H](CCCNC(=N)N)C(=O)N[C@@H](CCCCN)C(=O)N[C@@H](Cc1ccccc1)C(=O)N[C@@H](Cc1c[nH]cn1)C(=O)N[C@@H](C)C(=O)N[C@@H](CCCCN)C(=O)N[C@@H](CCCNC(=N)N)C(=O)N[C@@H](Cc1c[nH]cn1)C(=O)N[C@@H](Cc1c[nH]cn1)C(=O)NCC(=O)N[C@@H](Cc1ccc(O)cc1)C(=O)N[C@@H](CCCCN)C(=O)N[C@@H](CCCNC(=N)N)C(=O)N[C@@H](CCCCN)C(=O)N[C@@H](Cc1ccccc1)C(=O)N[C@@H](Cc1c[nH]cn1)C(N)=O [P-113 Double] (H-AKRHHGYKRKFHAKRHHGYKRKFH-NH2) | 5 ± 1 (≈ 15.6 µg/mL) | 15 ± 5 (≈ 46.7 µg/mL) | >200 | >200 | 9 ± 3 (≈ 28 µg/mL) |  |  |  |  |  |  | 
C[C@H](N)C(=O)N[C@@H](CCCCN)C(=O)N[C@@H](CCCNC(=N)N)C(=O)N[C@@H](CCCCN)C(=O)N[C@@H](CCCCN)C(=O)NCC(=O)N[C@@H](Cc1ccc(O)cc1)C(=O)N[C@@H](CCCCN)C(=O)N[C@@H](CCCNC(=N)N)C(=O)N[C@@H](CCCCN)C(=O)N[C@@H](Cc1ccccc1)C(=O)N[C@@H](CCCCN)C(N)=O [P-113 H4,5,12K] (H-AKRKKGYKRKFK-NH2) | 14 ± 4 (≈ 21.5 µg/mL) | 5 ± 1 (≈ 7.68 µg/mL) | >200 | >200 | >200 |  |  |  |  |  |  | 
C[C@H](N)C(=O)N[C@@H](CCCCN)C(=O)N[C@@H](CCCNC(=N)N)C(=O)N[C@@H](CCCCN)C(=O)N[C@@H](Cc1c[nH]cn1)C(=O)NCC(=O)N[C@@H](Cc1ccc(O)cc1)C(=O)N[C@@H](CCCCN)C(=O)N[C@@H](CCCNC(=N)N)C(=O)N[C@@H](CCCCN)C(=O)N[C@@H](Cc1ccccc1)C(=O)N[C@@H](Cc1c[nH]cn1)C(N)=O [P-113 H4K] (H-AKRKHGYKRKFH-NH2) |  |  |  |  |  |  |  | 14 ± 2 (≈ 21.8 µg/mL) | 33 ± 8 (≈ 51.3 µg/mL) | >200 | >200 | >200
C[C@H](N)C(=O)N[C@@H](CCCCN)C(=O)N[C@@H](CCCNC(=N)N)C(=O)N[C@@H](Cc1c[nH]cn1)C(=O)N[C@@H](Cc1c[nH]cn1)C(=O)NCC(=O)N[C@@H](Cc1ccc(O)cc1)C(=O)N[C@@H](CCCCN)C(=O)N[C@@H](CCCNC(=N)N)C(=O)N[C@@H](CCCCN)C(=O)N[C@@H](Cc1ccccc1)C(=O)N[C@@H](CCCCN)C(N)=O [P-113 H12K] (H-AKRHHGYKRKFK-NH2) | 17 ± 4 (≈ 26.4 µg/mL) | 4 ± 1 (≈ 6.22 µg/mL) | >200 | >200 | >200 |  |  |  |  |  |  | 
C[C@H](N)C(=O)N[C@@H](CCCCN)C(=O)N[C@@H](CCCNC(=N)N)C(=O)N[C@@H](Cc1c[nH]cn1)C(=O)N[C@@H](Cc1c[nH]cn1)C(=O)NCC(=O)N[C@@H](Cc1ccc(O)cc1)C(=O)N[C@@H](CCCCN)C(=O)N[C@@H](CCCNC(=N)N)C(=O)N[C@@H](CCCCN)C(=O)N[C@@H](Cc1ccccc1)C(=O)N[C@@H](Cc1c[nH]cn1)C(N)=O [P-113, reference compound] (H-AKRHHGYKRKFH-NH2) |  |  |  |  |  |  |  | 14 ± 2 (≈ 21.9 µg/mL) | 21 ± 4 (≈ 32.8 µg/mL) | >200 | >200 | >200
